Assay results taken from ChEMBL document CHEMBL2150979, “Xentrivalpeptides A-Q: depsipeptide diversification in Xenorhabdus” (J Nat Prod, 2012).
The source made the active and inactive calls. The rule behind the calls is not given here.

Legend:
Saccharomyces cerevisiae = assay: Antifungal activity against Saccharomyces cerevisiae; format: functional, organism-based
Bacillus subtilis = assay: Antibacterial activity against Bacillus subtilis; format: functional, organism-based
HL-60 = assay: Cytotoxicity against human HL60 cells after 5 days by MTT assay; format: functional, cell-based
Staphylococcus aureus = assay: Antibacterial activity against Staphylococcus aureus; format: functional, organism-based
Galleria mellonella = assay: Hemocyte cytotoxicity against Galleria mellonella larvae assessed as actin cytoskeletal ruffling at 100 ug/mL after 4 hrs; format: organism-based; details: in vivo
Pseudomonas aeruginosa = assay: Antibacterial activity against Pseudomonas aeruginosa; format: functional, organism-based
Micrococcus luteus = assay: Antibacterial activity against Micrococcus luteus; format: functional, organism-based
Escherichia coli = assay: Antibacterial activity against Escherichia coli; format: functional, organism-based
[1] = test system: Staphylococcus epidermidis; assay: Antibacterial activity against Staphylococcus epidermidis; format: functional, organism-based
L929 = assay: Cytotoxicity against mouse L929 cells after 5 days by MTT assay; format: cell-based; details: l929, 120 h
Enterococcus faecalis = assay: Antibacterial activity against Enterococcus faecalis; format: functional, organism-based

Question: How did the Activity (Saccharomyces cerevisiae) turn out when `CC(C)[C@H](NC(=O)Cc1ccccc1)C(=O)N[C@@H]1C(=O)N[C@H](Cc2ccccc2)C(=O)N2CCC[C@H]2C(=O)N[C@@H](C(C)C)C(=O)N[C@@H](C(C)C)C(=O)N[C@@H](C(C)C)C(=O)O[C@@H]1C` [XENTRIVALPEPTIDE A] was run?
Answer: inactive

Question: And the Activity (Bacillus subtilis)?
Answer: inactive

Question: What about the Activity (HL-60) of the same compound?
Answer: inactive

Question: And the Activity (Staphylococcus aureus)?
Answer: inactive

Question: And the Activity (Galleria mellonella)?
Answer: Toxic

Question: And the Activity (Pseudomonas aeruginosa)?
Answer: inactive

Question: And the Activity (Micrococcus luteus)?
Answer: inactive

Question: What about the Activity (Escherichia coli) of the same compound?
Answer: inactive

Question: And the Activity [1]?
Answer: inactive

Question: And the Activity (L929)?
Answer: Non-toxic

Question: And the Activity (Enterococcus faecalis)?
Answer: inactive
